How the values were obtained:
microglial cell line = details: previously demonstrated (17); cited from earlier work
[1] = target: T1, interaction between rCD36 and fAβ1-42 (Homo sapiens, UniProt P16671); assay: colorimetric rCD36-fAβ1-42 interaction assay on polystyrene plate; format: binding; details: added 30 minutes prior to fAβ1-42 and maintained, p<0.05 by t-test, FIG. 7
T1 construct: the extracellular domain of the CD36 protein, corresponding to Gly30-Asn439; 6xHis (C); made in house; host or cells: Escherichia coli BL21 (DE3), pET30-CD36; purified by IMAC under denaturing conditions and renatured in PBS
T1 sequence (P16671 30-439): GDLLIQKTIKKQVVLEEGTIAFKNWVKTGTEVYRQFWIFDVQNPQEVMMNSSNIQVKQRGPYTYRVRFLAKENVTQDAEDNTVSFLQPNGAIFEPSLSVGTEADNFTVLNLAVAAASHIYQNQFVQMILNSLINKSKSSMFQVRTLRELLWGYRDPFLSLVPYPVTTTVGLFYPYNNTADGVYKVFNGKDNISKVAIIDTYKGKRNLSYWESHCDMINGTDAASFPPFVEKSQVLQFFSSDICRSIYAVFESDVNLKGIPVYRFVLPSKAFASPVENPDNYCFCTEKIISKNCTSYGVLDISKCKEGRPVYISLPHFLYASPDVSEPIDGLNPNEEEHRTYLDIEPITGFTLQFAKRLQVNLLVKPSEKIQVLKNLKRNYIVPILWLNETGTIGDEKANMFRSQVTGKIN
Text: The invention consists in the development of a rapid colorimetric procedure that through the adhesion of the recombinant protein CD36 to a polystyrene plate enables the evaluation of molecules that can inhibit the interaction of such protein and the amyloid beta. The process or method of this invention is based on the interaction of A) recombinant extracellular portion of the CD36 protein with B) the Aβ peptide in its fibril state. […] The presence of compounds that inhibit the ligand-receptor interaction in the reaction produces a reduction of the colorimetric signal generated after the addition of the substrate (FIG. 1). The fibrillar Aβ is prepared on the basis of the synthetic peptide incubated at 37° C., in distilled water. The fibrils are prepared by controlling the polymerization of the monomers, which is monitored through the Thioflavin T fluorescent assay (11). […]
Considering that the vast majority of the natural or synthetic compounds that will be tested in the screening phase are diluted in Dimethyl Sulfoxide (DMSO), the tolerance of the assay to this solvent was evaluated. First, the assay sensitivity was evaluated at a concentration of 0.1% DMSO in conjugated serial dilutions where concentrations of rCD36 and fAβ1-42 varied, similar to the description given in example 2 (FIG. 3). […] Later, the tolerance of the assay was evaluated at different doses of DMSO. […]

[2] = target: interaction between CD36 and fAβ1-42 (Homo sapiens, UniProt P16671); details: cell-based assay, previously demonstrated (17); cited from earlier work
Sequence of interaction between CD36 and fAβ1-42 (P16671 whole entry): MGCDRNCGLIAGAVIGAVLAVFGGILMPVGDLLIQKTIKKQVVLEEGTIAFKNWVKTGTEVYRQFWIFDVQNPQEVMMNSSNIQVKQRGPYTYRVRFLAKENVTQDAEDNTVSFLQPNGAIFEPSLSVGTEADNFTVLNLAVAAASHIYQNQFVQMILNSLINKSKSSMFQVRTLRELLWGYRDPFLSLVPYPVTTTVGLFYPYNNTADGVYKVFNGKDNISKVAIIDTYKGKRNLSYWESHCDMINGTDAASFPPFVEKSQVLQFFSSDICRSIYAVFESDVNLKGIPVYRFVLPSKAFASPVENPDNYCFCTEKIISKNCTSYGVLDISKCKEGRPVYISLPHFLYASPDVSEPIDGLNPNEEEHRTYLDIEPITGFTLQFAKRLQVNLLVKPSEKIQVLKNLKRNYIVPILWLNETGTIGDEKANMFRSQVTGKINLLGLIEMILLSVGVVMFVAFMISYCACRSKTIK

SMILES: C[C@H]1[C@H](C)CC[C@]2(C(=O)O)CC[C@]3(C)C(=CC[C@@H]4[C@@]5(C)CC[C@H](O)C(C)(C)[C@@H]5CC[C@]43C)[C@H]12 [ursolic acid]
- effect on Aβ-induced nitric oxide production (microglial cell line): this inhibition impacts on the Aβ-induced nitric oxide production
- decrease of the interaction between rCD36 and fAβ1-42 ([1]; ursolic acid 100 μM): significant decrease
- decrease of the interaction between rCD36 and fAβ1-42 ([1]; ursolic acid 200 μM): significant decrease
- inhibition of the interaction between CD36 and fAβ1-42 [2]: inhibits such interaction
